From patent US8778966B2, “Quinolinone derivatives as PARP and tank inhibitors” (Janssen Pharmaceutica, NV, priority 2007, dated 2014)

Key:
Human PARP-1 enzyme = molecular target: T1, Human PARP-1 enzyme (Homo sapiens, UniProt P09874); assay: In vitro Scintillation Proximity Assay (SPA) for PARP-1 inhibitory activity; assay type: biochemical; conditions: read-out: in vitro SPA assay PARP-1 pIC50 (converted)
T1 construct: purchased Trevigen
Method in brief: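 SPA assay: nicked-DNA-activated PARP-1 (0.1–0.2 μg/ml) ADP-ribosylates biotinylated histones (2 μg/ml) using [3H]-NAD+, 20 min at RT in Tris pH 8/DTT/MgCl2, stopped with 2 mM NAD+. Blank-subtracted cpm expressed as % control; IC50 by linear interpolation, reported as pIC50 (10−5 to 3×10−9 M tested).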

tubulin = assay: Tubulin polymerization assay; assay type: biochemical; parameters: key: a compound showing 0 to 50% inhibition at 20 μM is reported as score 1; Score 2 compounds are defined as compound showing more than 50% inhibition at 20 μM and less than 50% inhibition at 5 μM; a compound showing more than 50% inhibition at 5 μM is reported as score 3; conditions: tested at 20 μM and 5 μM
Method in brief: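 Cytoskeleton kit tubulin was run in a 10 µl final volume at 37 °C, with fluorescence read every minute for 1 h. Polymerization was taken as the maximum slope (4-point linear regression) and expressed as % of no-compound control. Compounds were tested at 20 µM, then at 5 µM if inhibition exceeded 50%, and scored by % inhibition.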

T1 sequence (P09874 whole entry): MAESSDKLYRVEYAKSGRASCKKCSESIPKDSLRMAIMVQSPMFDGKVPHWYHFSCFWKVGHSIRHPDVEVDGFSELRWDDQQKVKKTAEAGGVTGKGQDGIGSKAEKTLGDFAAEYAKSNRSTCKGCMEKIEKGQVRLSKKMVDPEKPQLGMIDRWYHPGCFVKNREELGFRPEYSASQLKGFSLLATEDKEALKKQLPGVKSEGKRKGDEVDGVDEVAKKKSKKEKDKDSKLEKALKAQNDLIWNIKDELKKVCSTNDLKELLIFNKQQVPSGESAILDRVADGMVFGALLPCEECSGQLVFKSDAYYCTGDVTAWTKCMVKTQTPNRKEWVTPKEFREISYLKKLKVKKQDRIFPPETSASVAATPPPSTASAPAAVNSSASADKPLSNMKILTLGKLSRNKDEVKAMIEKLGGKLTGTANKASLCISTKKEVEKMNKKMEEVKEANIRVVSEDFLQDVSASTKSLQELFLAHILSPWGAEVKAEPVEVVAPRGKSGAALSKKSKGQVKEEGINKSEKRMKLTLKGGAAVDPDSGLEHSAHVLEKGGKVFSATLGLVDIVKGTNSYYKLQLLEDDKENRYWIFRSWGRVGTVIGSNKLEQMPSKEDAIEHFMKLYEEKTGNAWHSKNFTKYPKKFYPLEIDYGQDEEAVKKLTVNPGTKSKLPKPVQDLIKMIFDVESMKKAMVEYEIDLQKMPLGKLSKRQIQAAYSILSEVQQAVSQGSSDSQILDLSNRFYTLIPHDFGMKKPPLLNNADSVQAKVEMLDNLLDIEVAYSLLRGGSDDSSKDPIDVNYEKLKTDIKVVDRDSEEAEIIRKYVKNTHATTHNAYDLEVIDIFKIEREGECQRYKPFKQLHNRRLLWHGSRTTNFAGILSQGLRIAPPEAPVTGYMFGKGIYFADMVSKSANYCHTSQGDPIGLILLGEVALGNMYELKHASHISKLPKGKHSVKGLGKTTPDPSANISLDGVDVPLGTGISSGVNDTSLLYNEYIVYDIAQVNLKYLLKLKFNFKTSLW

SMILES | IC50 (Human PARP-1 enzyme) [nM] | tubulin polymerisation score (tubulin)
CCc1cc2c(OC)cc(C(C)(C#N)Cc3nc(OC)cc(OC)n3)cc2[nH]c1=O (single isomer, unassigned) [Compound 230] | 63.1 | 1 (a compound showing 0 to 50% inhibition at 20 μM is reported as score 1)
CCc1cc2ccc([C@@](C)(C#N)CCOc3ccc(C#N)cc3)cc2[nH]c1=O (single isomer, unassigned) [Compound 273] | 79.4 | 2
CCc1cc2ccc([C@](C)(C#N)CCOc3ccc(C#N)cc3)cc2[nH]c1=O (single isomer, unassigned) [Compound 275] | 50.1 | –
CCc1cc2ccc([C@](C)(C#N)Cc3cccc(/C=C/S(C)(=O)=O)c3)cc2[nH]c1=O (single isomer, unassigned) [Compound 291] | 25.1 | 2
CCc1cc2ccc([C@@](C)(C#N)Cc3cccc(C#CCO)c3)cc2[nH]c1=O (single isomer, unassigned) [Compound 295] | 25.1 | 1 (a compound showing 0 to 50% inhibition at 20 μM is reported as score 1)
CCc1cc2ccc([C@](C)(C#N)Cc3cccc(C#CCO)c3)cc2[nH]c1=O (single isomer, unassigned) [Compound 296] | 31.6 | 2
CCc1cc2ccc([C@@](C)(C#N)Cc3cc(OC)nc(C)n3)cc2[nH]c1=O (single isomer, unassigned) [Compound 361] | 126 | 1 (a compound showing 0 to 50% inhibition at 20 μM is reported as score 1)
CCc1cc2ccc([C@](C)(C#N)Cc3cc(OC)nc(C)n3)cc2[nH]c1=O (single isomer, unassigned) [Compound 362] | 631 | 2
CCc1cc2ccc(C(C)(C#N)Cc3cccc(C(=O)OC(C)C)c3)cc2[nH]c1=O (centres unmarked) [Compound 255] | 50.1 | 2
CCc1cc2ccc(C(C)(C#N)Cc3cc(Br)cc(N(C)C)c3)cc2[nH]c1=O (centres unmarked) [Compound 260] | 79.4 | 2
CCc1cc2ccc(C(C)(C#N)Cc3cc(C(F)(F)F)ccc3F)cc2[nH]c1=O (centres unmarked) [Compound 283] | 79.4 | –
CCc1cc2ccc(C(C)(C#N)Cc3cc(C(C)C)ccc3OC)cc2[nH]c1=O (centres unmarked) [Compound 288] | 158 | –
CCc1cc2ccc(C(C)(C#N)Cc3cc(OC)c(OC)c(OC)c3)cc2[nH]c1=O (centres unmarked) [Compound 289] | 158 | 2
CCc1cc2ccc(C(C)(C#N)CN(C)Cc3ccc(C#N)cc3)cc2[nH]c1=O (centres unmarked) [Compound 300] | 158 | 1 (a compound showing 0 to 50% inhibition at 20 μM is reported as score 1)
CCc1cc2ccc(C(C)(C#N)CNCc3ccc(C#N)cc3)cc2[nH]c1=O (centres unmarked) [Compound 302] | 126 | –
CCc1cc2ccc(C(C)(C#N)Cc3nc(C#N)cc(OC)n3)cc2[nH]c1=O (centres unmarked) [Compound 313] | 100 | 2
CCc1cc2ccc(C(C)(C#N)Cc3cc(C#N)nc(OC)c3)cc2[nH]c1=O (centres unmarked) [Compound 314] | 50.1 | 1 (a compound showing 0 to 50% inhibition at 20 μM is reported as score 1)
CCc1cc2ccc(C(C)(C#N)Cc3cc(N(C)C)nc(C#N)n3)cc2[nH]c1=O (centres unmarked) [Compound 317] | 79.4 | –
CCc1cc2ccc(C(C)(C#N)Cc3nc(C#N)cc(N(C)C)n3)cc2[nH]c1=O (centres unmarked) [Compound 318] | 79.4 | 1 (a compound showing 0 to 50% inhibition at 20 μM is reported as score 1)
CCc1cc2ccc(C(C)(C#N)Cc3cc(N(C)C)nc(N(C)C)n3)cc2[nH]c1=O (centres unmarked) [Compound 320] | 200 | –
CCc1cc2ccc(C(C)(C#N)Cc3cc(N(C)C)nc(C)n3)cc2[nH]c1=O (centres unmarked) [Compound 322] | 200 | –
CCc1cc2ccc(C(C)(C#N)Cc3cc(C#N)nc(N(C)C)c3)cc2[nH]c1=O (centres unmarked) [Compound 325] | 79.4 | –
CCc1cc2ccc(C(C)(C#N)Cc3ccc4c(c3)OC(F)(F)O4)cc2[nH]c1=O (centres unmarked) [Compound 346] | 79.4 | –
CCc1cc2ccc(C(C)(C#N)Cc3cc(Cl)nc(OC)c3)cc2[nH]c1=O (centres unmarked) [Compound 351] | 63.1 | –
CCc1cc2ccc(C(C)(C#N)Cc3cc(N(C)C)nc(OC)n3)cc2[nH]c1=O (centres unmarked) [Compound 354] | 79.4 | –
CCc1cc2ccc(C(C)(C#N)Cc3cc(Cl)nc(C)n3)cc2[nH]c1=O (centres unmarked) [Compound 365] | 126 | –

Second part, led by results:

IC50 (Human PARP-1 enzyme) [nM] | SMILES | tubulin polymerisation score (tubulin)
100 | Cc1cc2ccc([C@@](C)(C#N)C3CCc4ccccc43)cc2[nH]c1=O (single isomer, unassigned) [Compound 385] | –
126 | Cc1cc2ccc([C@](C)(C#N)C3CCc4ccccc43)cc2[nH]c1=O (single isomer, unassigned) [Compound 386] | 2
200 | Cc1cc2ccc(C(C)(C#N)Cc3cccc(C=Cc4ccccc4)c3)cc2[nH]c1=O (centres unmarked) [Compound 179] | –
39.8 | CCc1cc2ccc(C(C)(C#N)Cc3cccc(C(=N)NO)c3)cc2[nH]c1=O (centres unmarked) [Compound 186] | –
398 | Cc1cc2ccc(C(C)(C#N)Cc3cccc(Oc4ccc(F)cc4)c3)cc2[nH]c1=O (centres unmarked) [Compound 192] | –
100 | CCc1cc2ccc(C(C)(C#N)COCc3ccccc3)cc2[nH]c1=O (centres unmarked) [Compound 197] | –
126 | Cc1nc(-c2ccccc2)sc1CC(C)(C#N)c1ccc2cc(C)c(=O)[nH]c2c1 (centres unmarked) [Compound 235] | 1 (a compound showing 0 to 50% inhibition at 20 μM is reported as score 1)
126 | Cc1cc2ccc(C(C)(C#N)Cc3cccc(I)c3)cc2[nH]c1=O (centres unmarked) [Compound 256] | –
79.4 | CCc1cc2ccc(C(C)(C#N)Cc3cccc(NC)c3)cc2[nH]c1=O (centres unmarked) [Compound 257] | –
100 | Cc1cc2ccc(C(C)(C#N)Cc3cccc(OCC4CCOCC4)c3)cc2[nH]c1=O (centres unmarked) [Compound 261] | –
50.1 | CCc1cc2ccc(C(C)(C#N)Cc3cc(F)ccc3F)cc2[nH]c1=O (centres unmarked) [Compound 280] | –
39.8 | CCc1cc2ccc(C(C)(C#N)Cc3ccc(F)c(F)c3)cc2[nH]c1=O (centres unmarked) [Compound 281] | –
50.1 | CCOc1cccc(CC(C)(C#N)c2ccc3cc(CC)c(=O)[nH]c3c2)c1 (centres unmarked) [Compound 285] | 2
25.1 | CCc1cc2ccc(C(C)(C#N)Cc3cccc(OC)c3F)cc2[nH]c1=O (centres unmarked) [Compound 286] | –
31.6 | CCc1cc2ccc(C(C)(C#N)Cc3cccc(/C=N/O)c3)cc2[nH]c1=O (centres unmarked) [Compound 299] | –
200 | Cc1cc2ccc(C(C)(C#N)Cc3cccc(Oc4ccccc4)c3)cc2[nH]c1=O (centres unmarked) [Compound 305] | –
158 | CCc1cc2ccc(C(C)(C#N)Cc3c4ccccc4nn3C)cc2[nH]c1=O (centres unmarked) [Compound 347] | –
79.4 | CCc1cc2ccc(C(C)(C#N)Cc3cc(Br)cc4c3OCC4)cc2[nH]c1=O (centres unmarked) [Compound 378] | –
200 | Cc1cc2ccc([C@](C)(C#N)[C@H]3CCc4ccccc43)cc2[nH]c1=O [Compound 387] | –
126 | Cc1cc2ccc(C(C)(C#N)C3CCc4ccccc43)cc2[nH]c1=O (centres unmarked) [Compound 392] | –
200 | Cc1cc2ccc(C(C)(C#N)C3CCCc4ccccc43)cc2[nH]c1=O (centres unmarked) [Compound 404] | –
100 | Cc1cc2ccc(C(C)(C#N)Cc3cccc(/C=C/CCO)c3)cc2[nH]c1=O (centres unmarked) [Compound 409] | –
